Drawing on PubChem BioAssay AID2060605 (Molecular Pharmacology Branch, DTP, NCI, 2025), this text covers IC50 and viability, T/C for five compounds.

The subject of this assay is 947758-054-R-J2-PDC spheroid growth, percent test/control. Description: Anticancer human tumor 947758-054-R-J2-PDC patient-derived colon adenocarcinoma cell line growth inhibition [CLK]. The conditions noted are these: spheroids with HUVEC and MSC; for viability, T/C: stronger effect = lower value. Put shortly:
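Multi-cell-type spheroids combined patient-derived tumor cells with HUVEC endothelial cells and human mesenchymal stem cells. Paired agents were dosed in half-log steps down from about clinical Cmax, or from 10 microM where Cmax was unknown.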

Setting [1] is: curve of first compound, second compound 0.0316 µM.
The mark [2] stands for this setting: curve of first compound, second compound 0.1 µM.
Where [3] appears, read: curve of first compound, second compound 0.316 µM.
The mark [4] stands for this setting: curve of first compound, second compound 1 µM.
The mark [5] stands for this setting: curve of first compound, second compound 3.16 µM.
Where [6] appears, read: curve of first compound, second compound 10 µM.
Where [7] appears, read: second compound 0.0316 µM, first compound 0.0316 µM.
[8] abbreviates: second compound 0.0316 µM, first compound 0.1 µM.
Where [9] appears, read: second compound 0.0316 µM, first compound 0.316 µM.
Setting [10] is: second compound 0.0316 µM, first compound 1 µM.
Where [11] appears, read: second compound 0.0316 µM, first compound 3.16 µM.
Setting [12] is: second compound 0.0316 µM, first compound 10 µM.
The mark [13] stands for this setting: second compound 0.1 µM, first compound 0.0316 µM.
[14] abbreviates: second compound 0.1 µM, first compound 0.1 µM.
[15] abbreviates: second compound 0.1 µM, first compound 0.316 µM.
Setting [16] is: second compound 0.1 µM, first compound 1 µM.
The mark [17] stands for this setting: second compound 0.1 µM, first compound 3.16 µM.
[18] abbreviates: second compound 0.1 µM, first compound 10 µM.
[19] abbreviates: second compound 0.316 µM, first compound 0.0316 µM.
The mark [20] stands for this setting: second compound 0.316 µM, first compound 0.1 µM.
Where [21] appears, read: second compound 0.316 µM, first compound 0.316 µM.
[22] abbreviates: second compound 0.316 µM, first compound 1 µM.
The mark [23] stands for this setting: second compound 0.316 µM, first compound 3.16 µM.
Setting [24] is: second compound 0.316 µM, first compound 10 µM.
Setting [25] is: second compound 1 µM, first compound 0.0316 µM.
Where [26] appears, read: second compound 1 µM, first compound 0.1 µM.
Setting [27] is: second compound 1 µM, first compound 0.316 µM.
The mark [28] stands for this setting: second compound 1 µM, first compound 1 µM.
Where [29] appears, read: second compound 1 µM, first compound 3.16 µM.
Setting [30] is: second compound 1 µM, first compound 10 µM.
Where [31] appears, read: second compound 3.16 µM, first compound 0.0316 µM.
The mark [32] stands for this setting: second compound 3.16 µM, first compound 0.1 µM.
Setting [33] is: second compound 3.16 µM, first compound 0.316 µM.
[34] abbreviates: second compound 3.16 µM, first compound 1 µM.
Where [35] appears, read: second compound 3.16 µM, first compound 3.16 µM.
[36] abbreviates: second compound 3.16 µM, first compound 10 µM.
[37] abbreviates: second compound 10 µM, first compound 0.0316 µM.
Setting [38] is: second compound 10 µM, first compound 0.1 µM.
Where [39] appears, read: second compound 10 µM, first compound 0.316 µM.
Setting [40] is: second compound 10 µM, first compound 1 µM.
Where [41] appears, read: second compound 10 µM, first compound 3.16 µM.
Where [42] appears, read: second compound 10 µM, first compound 10 µM.

Several values for one entry are separate records, joined by “and”; a condition that tells them apart may be missing. Equal values may be shown once. Some results are limits rather than exact numbers.
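Note: spheroids exposed to compounds for one week before readout.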
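Throughout, for viability, T/C: 100% = DMSO vehicle control wells.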

For the compound `CC(Nc1ccc2c(c1)OCCn1cc(N3C(=O)OCC3C(F)F)nc1-2)C(N)=O` (stereo not given) + CNC(=O)c1ccc(Nc2nc(OC3CCCC3)c3c(-c4ccc5nc(C)oc5c4)c[nH]c3n2)c(OC)c1, the half-maximal inhibitory concentration (IC50) – broadly, the concentration that gives 50% inhibition – under setting [1] came out at 0.0754 µM; the IC50 under setting [2] stood at 0.0949 µM; the IC50 under setting [3] amounted to 0.0594 µM; the IC50 under setting [4] was less than 0.0316 µM; the IC50 under setting [5] is less than 0.0316 µM; the IC50 under setting [6] was less than 0.0316 µM. Also, the viability, T/C (commonly the result in the treated group divided by that in the control group, in per cent) reads like this: under setting [7], 55.6%; under setting [8], 51.5%; under setting [9], 39.4%; under setting [10], 35.8%; under setting [11], 39%; under setting [12], 33.7%. The viability, T/C reads like this: under setting [13], 70.7%; under setting [14], 46.2%; under setting [15], 36.2%; under setting [16], 35%; under setting [17], 28%; under setting [18], 20.8%. Besides, the viability, T/C runs as follows: under setting [19], 64.6%; under setting [20], 37.9%; under setting [21], 16.9%; under setting [22], 22.7%; under setting [23], 21.6%; under setting [24], 14.4%. The viability, T/C under setting [25] was 34.1%; the viability, T/C under setting [26] is 19.7%; the viability, T/C under setting [27] was 12.5%; the viability, T/C under setting [28] was 10.8%; the viability, T/C under setting [29] is 10.8%; the viability, T/C under setting [30] was 4.05%. Besides, the viability, T/C under setting [31] is 31.8%; the viability, T/C under setting [32] was 14.3%; the viability, T/C under setting [33] is 9.12%; the viability, T/C under setting [34] was 8.23%; the viability, T/C under setting [35] was 5.63%; the viability, T/C under setting [36] is 4.88%. Besides, the viability, T/C was 20.7% under setting [37]; 10.9% under setting [38]; 10.3% under setting [39]; 6.53% under setting [40]; 4.37% under setting [41]; 4.21% under setting [42].
Regarding `Nc1ccccc1NC(=O)c1ccc(CNC(=O)OCc2cccnc2)cc1` + CNC(=O)c1ccc(Nc2nc(OC3CCCC3)c3c(-c4ccc5nc(C)oc5c4)c[nH]c3n2)c(OC)c1, the IC50 was 2.23 µM under setting [1]; 2.52 µM under setting [2]; 2.51 µM under setting [3]; 0.439 µM under setting [4]; less than 0.0316 µM under setting [5]; less than 0.0316 µM under setting [6]. Besides, the viability, T/C by setting is: under setting [7], 89.6%; under setting [8], 102%; under setting [9], 122%; under setting [10], 85.4%; under setting [11], 34.2%; under setting [12], 5.25%. Moreover, the viability, T/C reads like this: under setting [13], 85.4%; under setting [14], 106%; under setting [15], 111%; under setting [16], 116%; under setting [17], 36.7%; under setting [18], 4.57%. Further, the viability, T/C under setting [19] was 112%; the viability, T/C under setting [20] is 83.5%; the viability, T/C under setting [21] was 91.3%; the viability, T/C under setting [22] is 101%; the viability, T/C under setting [23] is 38.3%; the viability, T/C under setting [24] was 3.65%. Further, the viability, T/C runs as follows: under setting [25], 64.5%; under setting [26], 62.7%; under setting [27], 43%; under setting [28], 48.7%; under setting [29], 26.7%; under setting [30], 1.54%. For the same compound, the viability, T/C is 49.2% under setting [31]; 43.8% under setting [32]; 44.5% under setting [33]; 33.1% under setting [34]; 16.2% under setting [35]; 0.26% under setting [36]. Further, the viability, T/C is 38.8% under setting [37]; 26.8% under setting [38]; 31.8% under setting [39]; 29.2% under setting [40]; 4.69% under setting [41]; 0.52% under setting [42].
Turning to `C=CC(=O)N1CCN(c2nc(=O)n(-c3c(C)ccnc3C(C)C)c3nc(-c4c(O)cccc4F)c(F)cc23)C(C)C1` (stereo not given), the viability, T/C (compound 0.0316 µM) was 115% and 77.6%; the viability, T/C (compound 0.1 µM) was 77.8% and 82.6%; the viability, T/C (compound 0.316 µM) is 106% and 101%; the viability, T/C (compound 1 µM) is 75.6% and 75%; the viability, T/C (compound 3.16 µM) is 81.2% and 90.3%; the viability, T/C (compound 10 µM) was 94.7% and 77.3%. In addition, under “curve of compound”, the IC50 was more than 10 µM.
In the case of `CCN1CCN(Cc2ccc(Nc3ncc(F)c(-c4cc(F)c5nc(C)n(C(C)C)c5c4)n3)nc2)CC1`, the viability, T/C (compound 0.00316 µM) was 81.3% and 94.8%; the viability, T/C (compound 0.01 µM) is 81.6% and 106%; the viability, T/C (compound 0.0316 µM) is 139% and 190%; the viability, T/C (compound 0.1 µM) is 164% and 182%; the viability, T/C (compound 0.316 µM) was 130% and 126%; the viability, T/C (compound 1 µM) was 43% and 55.8%. In addition, the IC50 (curve of compound) was 0.9 µM and > 1 µM.
Consider `O=C(c1cc(Cc2n[nH]c(=O)c3ccccc23)ccc1F)N1CCN(C(=O)C2CC2)CC1`, for which the viability, T/C is, setting by setting: (compound 0.0316 µM) 94.1% and 101%; (compound 0.1 µM) 93.6% and 90%; (compound 0.316 µM) 106% and 101%; (compound 1 µM) 107%; (compound 3.16 µM) 131% and 101%; (compound 10 µM) 177% and 120%. For the same compound, for the setting “curve of compound”, the concentration for half-maximal inhibition (IC50) was more than 10 µM.
